The source of these data is PMC4428629, “The Structure of an NDR/LATS Kinase–Mob Complex Reveals a Novel Kinase–Coactivator System and Substrate Docking Mechanism” (PLoS Biology, 2015).

In one test the target is T1, Cbk1^Δ730–756–Mob2 (Saccharomyces cerevisiae, UniProt P43563+P53894).
T1 construct: His6-Cbk1^251–756 was co-expressed with GST-Mob2 (full length or 45–287); His6 (N); made in house
The experiment in a line: biochemical. It counts as binding. The source says: ND, not determined. […] (PDF) Click here for additional data file.

The next test has as its target T2, Cbk1^251-756(F447A)-Mob2 (Saccharomyces cerevisiae, UniProt P43563+P53894, F447A).
T2 construct: His6-Cbk1^251–756 was co-expressed with GST-Mob2 (full length or 45–287); His6 (N); made in house
The experiment in a line: biochemical. In kind it is binding. The method, then:
(§1) His6-Cbk1^251–756 was co-expressed with GST-Mob2 (full length or 45–287). Cbk1 kinase domain alone (352–756 or 352–692) was expressed as GST-Cbk1-His6. All constructs were bacterially expressed and purified on a Ni-NTA resin (Qiagen) followed by glutathione Sepharose beads (GE Biosciences). For crystallization, tags were cleaved with TEV protease followed by cation exchange chromatography on a Resource S column. All Cbk1 preparations were subsequently dialyzed into Cbk1 buffer (20 mM Tris-HCl, 150 mM NaCl, 2 mM DTT [pH 8.0]).
(§2) For FP-based binding affinity measurements, different docking peptides (pepAce2: GSGSIIVTTNSANGGYQFP; pepSSD1: TTEQSDFKFP; pepHM: IGYTYSRFDY; pepHM-P: IGYpTYSRFDY) were N-terminally (pepAce2 and pepSSD1) or C-terminally (pepHM and pepHM-P) labeled with carboxyfluorescein (CF) fluorescent dyes.
(§3) Change in the FP signal in direct binding affinity measurements was monitored as a function of increasing concentration of protein with a Synergy H4 (BioTek Instruments) plate reader in 384-well plates. The labeled peptides were at 20 nM in 20 mM Tris (pH 8.0), 100 mM NaCl, 0.05% Brij35P, 2 mM DTT. […] Subsequently, increasing amounts of unlabeled peptide were added, and the FP signal was measured as described earlier for direct titration experiments. The Kd for each unlabeled peptide interaction was determined by fitting the data to a competition binding equation. […]

Another test concerns the target T3, Cbk1^251-756-Mob2 (Saccharomyces cerevisiae, UniProt P43563+P53894).
T3 construct: His6-Cbk1^251–756 was co-expressed with GST-Mob2 (full length or 45–287); His6 (N); made in house
T3 sequence (P53894 251-756): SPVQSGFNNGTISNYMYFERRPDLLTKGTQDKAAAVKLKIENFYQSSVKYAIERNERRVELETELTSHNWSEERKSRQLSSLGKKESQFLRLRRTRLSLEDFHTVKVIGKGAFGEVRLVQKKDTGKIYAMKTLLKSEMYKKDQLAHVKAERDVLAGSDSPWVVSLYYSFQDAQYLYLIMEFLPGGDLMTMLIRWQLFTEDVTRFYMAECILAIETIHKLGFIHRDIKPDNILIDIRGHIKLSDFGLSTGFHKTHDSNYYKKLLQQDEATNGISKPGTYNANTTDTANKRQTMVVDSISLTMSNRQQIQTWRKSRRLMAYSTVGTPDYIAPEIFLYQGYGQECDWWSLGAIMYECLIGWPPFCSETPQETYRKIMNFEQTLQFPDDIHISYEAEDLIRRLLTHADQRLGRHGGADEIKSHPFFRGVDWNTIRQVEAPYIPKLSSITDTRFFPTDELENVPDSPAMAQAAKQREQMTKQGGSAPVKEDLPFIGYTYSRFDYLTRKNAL
T3 sequence (P43563 1-287 partner): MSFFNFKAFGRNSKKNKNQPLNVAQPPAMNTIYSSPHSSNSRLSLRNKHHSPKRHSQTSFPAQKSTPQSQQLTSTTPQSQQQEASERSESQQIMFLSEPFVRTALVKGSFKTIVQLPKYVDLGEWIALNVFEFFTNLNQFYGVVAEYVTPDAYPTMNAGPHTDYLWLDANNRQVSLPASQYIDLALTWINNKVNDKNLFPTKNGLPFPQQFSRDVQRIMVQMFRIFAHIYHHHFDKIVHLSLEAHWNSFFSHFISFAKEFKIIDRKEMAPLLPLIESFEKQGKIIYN
The experiment in a line: FP direct titration, Cbk1^251-756-Mob2 (WT). It counts as binding. As to the method:
as §1, §2
Change in the FP signal in direct binding affinity measurements was monitored as a function of increasing concentration of protein with a Synergy H4 (BioTek Instruments) plate reader in 384-well plates. The labeled peptides were at 20 nM in 20 mM Tris (pH 8.0), 100 mM NaCl, 0.05% Brij35P, 2 mM DTT. The resulting binding isotherms were fit to a quadratic binding equation. The affinity of the unlabeled peptides was measured in steady-state competition experiments: 20 nM labeled reporter was mixed with protein samples in a concentration to achieve ~60%–80% complex formation. Subsequently, increasing amounts of unlabeled peptide were added, and the FP signal was measured as described earlier for direct titration experiments. The Kd for each unlabeled peptide interaction was determined by fitting the data to a competition binding equation. Titration experiments were carried out in triplicate, and the average FP signal was used for fitting the data with OriginPro 7.

A further test addresses T4, Cbk1^251-756(F699A)-Mob2 (Saccharomyces cerevisiae, UniProt P43563+P53894, F699A).
T4 construct: His6-Cbk1^251–756 was co-expressed with GST-Mob2 (full length or 45–287); His6 (N); made in house
The experiment in a line: biochemical. It counts as binding. The method, then: as §1, §2, §3

The target in test [1] is T5, Cbk1^352–756 kinase domain (S. cerevisiae, UniProt P53894 352-756).
T5 construct: source: bacterially expressed, purified (Ni-NTA, glutathione Sepharose); not shown: His6, C-terminal, kept
T5 sequence (looked up): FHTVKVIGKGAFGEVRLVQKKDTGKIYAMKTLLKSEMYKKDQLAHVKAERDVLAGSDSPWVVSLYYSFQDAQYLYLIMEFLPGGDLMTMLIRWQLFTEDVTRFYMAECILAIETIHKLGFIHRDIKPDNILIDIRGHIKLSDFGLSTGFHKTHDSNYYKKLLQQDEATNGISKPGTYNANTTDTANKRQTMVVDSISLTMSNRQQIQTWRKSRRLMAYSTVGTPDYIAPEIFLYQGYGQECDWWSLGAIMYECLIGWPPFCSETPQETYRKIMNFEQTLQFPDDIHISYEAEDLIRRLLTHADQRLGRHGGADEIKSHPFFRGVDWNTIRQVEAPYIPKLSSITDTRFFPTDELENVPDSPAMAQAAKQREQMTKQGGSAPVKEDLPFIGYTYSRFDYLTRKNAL
The experiment in a line: pull-down; pull-down of Cbk1^352–756 by bead-bound Ace2 or Ssd1 docking motifs in competition with unbound Ace2^270–290. The settings on record: both partners purified.

For test [2], the target named is T6, Cbk1^352–692 kinase domain (S. cerevisiae, UniProt P53894 352-692).
T6 construct: also called catalytic domain alone; source: bacterially expressed, purified (Ni-NTA, glutathione Sepharose); not shown: His6, C-terminal, kept
T6 sequence (looked up): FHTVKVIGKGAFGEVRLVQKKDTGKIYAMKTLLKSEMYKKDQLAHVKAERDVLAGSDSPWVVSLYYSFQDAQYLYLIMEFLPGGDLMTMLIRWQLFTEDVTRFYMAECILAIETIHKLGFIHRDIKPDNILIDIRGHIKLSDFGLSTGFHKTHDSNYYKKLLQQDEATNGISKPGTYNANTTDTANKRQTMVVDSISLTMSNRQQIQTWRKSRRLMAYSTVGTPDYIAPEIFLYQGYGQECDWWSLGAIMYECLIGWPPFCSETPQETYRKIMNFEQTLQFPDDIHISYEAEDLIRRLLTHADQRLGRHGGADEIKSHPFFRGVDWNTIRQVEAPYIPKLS
The experiment in a line: pull-down; MBP fusions on amylose beads incubated with 1 μM purified Cbk1 on ice for 15 min, washed 3× with PBS; GelCode Blue or immunoblot (His or pS570 antibodies). The settings on record: both partners purified. On the technique in general: Immunoblotting shows a protein as a band on a membrane.

A further test deals with Cbk1. The experiment in a line: In vitro kinase assay resolved by SDS-PAGE, Ace2/Ssd1 fragments. Particulars: Cbk1^352–756 kinase domain (S5D). It counts as biochemical, Saccharomyces cerevisiae. The method, then: Kinase assays resolved by SDS-PAGE were conducted with GST-Ace2 or GST-Ssd1 fusions. Reactions contained 1–5 μM substrate, 100–250 nM Cbk1, 5 mM MnCl2, 2 mM DTT, 20 μM ATP, 10 μCi γ-^32P-ATP in Cbk1 buffer. Samples were removed at indicated time points and quenched with SDS-PAGE buffer, followed by SDS-PAGE separation. ^32P was visualized using a Storm phosphorimager (GE Biosciences) and quantified using ImageQuant software.

For test [3], the target named is T7, Cbk1(D475A/T743E), residues 251-756 (S. cerevisiae, UniProt P53894 251-756, D475A | T743E).
T7 construct: two crystal forms (A, 4.5 Å; B, 3.6 Å); also called Cbk1(HM-E); Cbk1(T743E); source: bacterially expressed with Mob2, purified (Ni-NTA, glutathione Sepharose, TEV cleavage, Resource S); not shown: His6, N-terminal, cleaved
T7 sequence (looked up): T3 sequence (P53894 251-756) with D225A, T493E
The experiment in a line: crystal structure; Cbk1(D475A) or Cbk1(D475A/T743E) with Mob2, tags cleaved, 4–6 mg/ml, 2 mM AMPPNP, 2 mM MgCl2, 2 mM TCEP; microbatch under oil at 23°C; three crystal forms. The settings on record: both partners purified.

The target of test [4] is T8, Cbk1(D475A), residues 251-756, intact hydrophobic motif (S. cerevisiae, UniProt P53894 251-756, D475A).
T8 construct: crystallised with AMPPNP; also called Cbk1(HM-T); source: bacterially expressed with Mob2, purified (Ni-NTA, glutathione Sepharose, TEV cleavage, Resource S); not shown: His6, N-terminal, cleaved
T8 sequence (looked up): T3 sequence (P53894 251-756) with D225A
The test is described as above. Particulars: both partners purified.

Changes are numbered by the printed parent chain. Where two headings read alike, the source gives them in different places. Non-standard residues stand in square brackets, D forms with d. Residues, ends and D or L forms follow the SMILES beside them. pT = C[C@@H](OP(=O)(O)O)[C@H](N)C(=O)O

T2 sequence (P53894 251-756 F447A, one chain of several): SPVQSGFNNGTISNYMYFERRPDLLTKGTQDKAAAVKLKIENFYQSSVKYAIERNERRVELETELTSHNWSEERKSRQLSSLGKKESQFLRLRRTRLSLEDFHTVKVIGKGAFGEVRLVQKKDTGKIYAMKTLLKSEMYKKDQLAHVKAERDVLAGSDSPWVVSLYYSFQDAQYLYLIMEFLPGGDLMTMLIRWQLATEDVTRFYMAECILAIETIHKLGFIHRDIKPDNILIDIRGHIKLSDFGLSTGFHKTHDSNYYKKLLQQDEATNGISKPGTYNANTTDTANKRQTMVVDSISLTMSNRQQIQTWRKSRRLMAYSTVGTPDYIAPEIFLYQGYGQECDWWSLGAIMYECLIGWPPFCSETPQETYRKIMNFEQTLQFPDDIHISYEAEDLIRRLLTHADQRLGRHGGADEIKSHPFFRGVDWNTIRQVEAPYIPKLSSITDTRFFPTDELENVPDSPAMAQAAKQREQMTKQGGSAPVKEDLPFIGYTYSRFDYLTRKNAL
T4 sequence (P53894 251-756 F699A, one chain of several): as the sequence (P53894 251-756 F447A, one chain of several) above, with A197F, F449A counted along it

Turning to `CC[C@H](C)[C@H](N)C(=O)NCC(=O)N[C@@H](Cc1ccc(O)cc1)C(=O)N[C@H](C(=O)N[C@@H](Cc1ccc(O)cc1)C(=O)N[C@@H](CO)C(=O)N[C@@H](CCCNC(=N)N)C(=O)N[C@@H](Cc1ccccc1)C(=O)N[C@@H](CC(=O)O)C(=O)N[C@@H](Cc1ccc(O)cc1)C(=O)O)[C@@H](C)OP(=O)(O)O` [pepHM-P] (H-IGY[pT]YSRFDY-OH), the values for the Kd at Cbk1^Δ730–756–Mob2 and on Cbk1^251-756(F447A)-Mob2 were around 6 µM and 33 µM, respectively.

On to `CC[C@H](C)[C@H](NC(=O)[C@H](CO)NC(=O)CNC(=O)[C@H](CO)NC(=O)CN)C(=O)N[C@H](C(=O)N[C@H](C(=O)N[C@H](C(=O)N[C@H](C(=O)N[C@@H](CC(N)=O)C(=O)N[C@@H](CO)C(=O)N[C@@H](C)C(=O)N[C@@H](CC(N)=O)C(=O)NCC(=O)NCC(=O)N[C@@H](Cc1ccc(O)cc1)C(=O)N[C@@H](CCC(N)=O)C(=O)N[C@@H](Cc1ccccc1)C(=O)N1CCC[C@H]1C(=O)O)[C@@H](C)O)[C@@H](C)O)C(C)C)[C@@H](C)CC` [pepAce2] (H-GSGSIIVTTNSANGGYQFP-OH), for which the Kd is 5 µM at Cbk1^251-756-Mob2 (CF-labeled peptide 20 nM, Tris pH 8.0, triplicate, read-out: peptide binding affinity (table in Fig 5C)); around 6 µM at Cbk1^251-756-Mob2 (labeled synthetic peptides, Cbk1–Mob2 (S5H Fig), read-out: Kd); 5 µM at Cbk1^251-756(F699A)-Mob2.

B1: Ace2^270–290 docking motif, MBP fusion (domain or fragment, S. cerevisiae, UniProt P21192 270-290, looked up)
chain: NAIIVTTNSANGGYQFPPPTL
notes: Ace2 of budding yeast, residues 270-290; also called WT Ace2 (two glycine residues)
Take B1: the binding result in [1] and in test [2] was “binds” in each case.

B2: Ace2^102–306: Ace2 fragment, kinase substrate containing docking motif (protein, UniProt P21192 102-306, looked up, fragment)
chain: ENNKVSHYSKKSMSSHKRGLSGTAIFGFLGHNKTLSISSLQQSILNMSKDPQPMELINELGNHNTVKNNNDDFDHIRENDGENSYLSQVLLKQQEELRIALEKQKEVNEKLEKQLRDNQIQQEKLRKVLEEQEEVAQKLVSGATNSNSKPGSPVILKTPAMQNGRMKDNAIIVTTNSANGGYQFPPPTLISPRMSNTSINGSPSR
On to B2, for which the “enhancement of phosphorylation by docking motif” value in the test on Cbk1 turned out to be 100 fold.

B3: Mob2, residues 45-287 (natural protein, S. cerevisiae, UniProt P43563 45-287, looked up)
chain: LRNKHHSPKRHSQTSFPAQKSTPQSQQLTSTTPQSQQQEASERSESQQIMFLSEPFVRTALVKGSFKTIVQLPKYVDLGEWIALNVFEFFTNLNQFYGVVAEYVTPDAYPTMNAGPHTDYLWLDANNRQVSLPASQYIDLALTWINNKVNDKNLFPTKNGLPFPQQFSRDVQRIMVQMFRIFAHIYHHHFDKIVHLSLEAHWNSFFSHFISFAKEFKIIDRKEMAPLLPLIESFEKQGKIIYN
notes: the crystallised construct begins at 45 (N-terminal Mob2 region 45-110 not seen in the density); source: bacterially expressed with Cbk1, purified (Ni-NTA, glutathione Sepharose, TEV cleavage, Resource S); not shown: GST, N-terminal, cleaved
B3: the binding result in test [3] and in [4] was “binds” in each case.
